Values of other authors in patent US20240382549A1, “USE OF MULBERRY EXTRACT FOR IMPROVING SLEEP QUALITY AND/OR SUBSEQUENT BEHAVIOURAL OUTCOMES” (SOCIETE DES PRODUITS NESTLE S.A., priority 2021, published 2024).

Conditions: earlier study; 12.5 mg DNJ in capsule, co-ingestion with maltodextrin

## OC[C@H]1NC[C@H](O)[C@@H](O)[C@@H]1O [DNJ, 1-deoxynojirimycin]
  reduction of PPGR: 14%
